This note sets out measurements from ChEMBL document CHEMBL4483862, “Open-source discovery of chemical leads for next-generation chemoprotective antimalarials” (2018).

Some results are limits rather than exact numbers.

For the experiment, the system named is Plasmodium berghei. In words: Luciferase/luciferin-expressing antifolate-resistant parasites were used to infect a culture of HepG2 cells that were pre-incubated with compounds. Infected hepatocytes emit light due to the luciferase reaction. Assay results are presented as the percent inhibition of light emission compared to control. […]. Particulars: sporozoite; for IC90: read-out: LUCIFERASE INFECTION ASSAY - IC90. It counts as functional.

Where [1] appears, read: read-out: LUCIFERASE INFECTION ASSAY - IC50.

For orientation: IC50 means the concentration that inhibits the measured activity by half. Broadly, the IC90 is the concentration needed for an effect of 90%.

Regarding `COc1ccc(CCN2C(=O)N(CC(C)C)C(=O)C23CCN(C2CCc4ccccc4C2)CC3)cc1` (stereo not drawn), the IC90 is 2.72 µM. The IC50 (HEPG2TOX_HILL_SLOPE 52.5, HEPG2TOX_R_SQUARED 0.896, PBLUC_HILL_SLOPE 13.1, PBLUC_R_SQUARED 0.487, read-out: LUCIFERASE INFECTION ASSAY - IC50) was determined as 2.3 µM.
Regarding `O=C(CSc1nnc(-c2ccco2)n1-c1ccc2c(c1)OCCO2)Nc1cc(Cl)cc(Cl)c1`, the IC90 is greater than 6.56 µM. For the same compound, the IC50 under setting [1] was greater than 6.56 µM.
For `CCC(C)c1ccc(S(=O)(=O)N(Cc2ccc(C(=O)NC3CC3)cc2)C2CC2)cc1` (stereo not drawn), the IC90 was 2.3 µM. Moreover, the IC50 (PBLUC_HILL_SLOPE 1.25, PBLUC_R_SQUARED 0.781, read-out: LUCIFERASE INFECTION ASSAY - IC50) amounted to 0.394 µM.
Turning to `N#CC(C#N)C=Nc1cc(C(F)(F)F)ccc1N1CCCC1`, the IC90 is greater than 10.8 µM. Besides, the IC50 under setting [1] was greater than 10.8 µM.
As for `O=C(NCc1ccc(-c2cccs2)s1)c1ccc([N+](=O)[O-])s1`, the IC90 is greater than 9.42 µM. In addition, under “PBLUC_HILL_SLOPE 15, PBLUC_R_SQUARED 0.438, read-out: LUCIFERASE INFECTION ASSAY - IC50”, the IC50 was determined as 8.73 µM.
For the compound `O=C(Nc1nc2ccccn2c1C(=O)NC1CCCC1)c1ccccc1`, the 90% effect concentration (IC90) was 7.5 µM. Under “HEPG2TOX_HILL_SLOPE 3.22, HEPG2TOX_R_SQUARED 0.898, PBLUC_HILL_SLOPE 4.41, PBLUC_R_SQUARED 0.561, read-out: LUCIFERASE INFECTION ASSAY - IC50”, the IC50 was found to be 4.56 µM.
For the compound `CC(=O)Nc1ccc(-c2cnc3ccc(-c4cccnc4)nn23)cc1`, the 90% effect concentration (IC90) worked out at 1.22 µM. For the same compound, the 50% inhibitory concentration (IC50) under setting [1] stood at 0.572 µM.
The corresponding values for `CCOC(=O)c1ccc2c(c1)C1C=CCC1C(c1cccnc1)N2` (stereo not drawn) are greater than 10.3 µM and greater than 10.3 µM.
The corresponding values for `COc1ccc2c(COC(=O)c3[nH]c(C)c(C(C)=O)c3C)cc(=O)oc2c1` are greater than 10 µM and greater than 10 µM.
As to `O=C(CCc1ccc(-c2ccccc2)o1)Nc1nc(CN2CCCCC2)cs1`, the concentration for an effect of 90% (IC90) was greater than 10 µM. In addition, the IC50 under setting [1] was greater than 10 µM.
Turning to `COc1ccc(C2C(C(=O)OCc3cccc4ccccc34)CCC(=O)N2c2ccc(C)cc2)cc1OC` (stereo not drawn), the IC90 is greater than 10 µM. The IC50 (HEPG2TOX_HILL_SLOPE 2.17, HEPG2TOX_R_SQUARED 0.745, PBLUC_HILL_SLOPE 19.2, PBLUC_R_SQUARED 0.577, read-out: LUCIFERASE INFECTION ASSAY - IC50) amounted to 9.58 µM.
For `CC(C)(C)c1cc2nc(C(F)(F)F)cc(NNC(=O)Nc3ccccc3)n2n1`, the 90% effect concentration (IC90) was greater than 8.41 µM. The IC50 (PBLUC_HILL_SLOPE 3.27, PBLUC_R_SQUARED 0.167, read-out: LUCIFERASE INFECTION ASSAY - IC50) is 5.36 µM.
Regarding `O=S(=O)(Nc1cccc(C(F)(F)F)c1)c1ccc(S(=O)(=O)c2ncc(C(F)(F)F)cc2Cl)s1`, the IC90 was greater than 5.99 µM. Besides, the IC50 under setting [1] was greater than 5.99 µM.
For the compound `C=CCNC(=O)CSC1=CC(=O)CC(c2ccc(Cl)cc2)S1` (stereo not drawn), the concentration for an effect of 90% (IC90) is greater than 9.32 µM. Under setting [1], the half-maximal inhibitory concentration (IC50) was greater than 9.32 µM.
As for `CC(=O)c1c(F)cccc1N1CCC(c2nc3ccccc3[nH]2)CC1`, the concentration for an effect of 90% (IC90) turned out to be 5.87 µM. Besides, the IC50 under setting [1] was found to be 2.87 µM.
Regarding `CNC(=O)c1cccc(-c2ccc3ncc(-c4ccc(CO)cc4)n3n2)c1`, the concentration for an effect of 90% (IC90) is greater than 10 µM. In addition, the half-maximal inhibitory concentration (IC50) (HEPG2TOX_HILL_SLOPE 13.1, HEPG2TOX_R_SQUARED 0.574, PBLUC_HILL_SLOPE 1.06, PBLUC_R_SQUARED 0.813, read-out: LUCIFERASE INFECTION ASSAY - IC50) stood at 1.39 µM.
For the compound `CS(=O)(=O)NCCc1ccc(C(=O)Nc2ncccc2O)cc1`, the 90% effect concentration (IC90) was greater than 10 µM. Also, under “PBLUC_HILL_SLOPE 2.26, PBLUC_R_SQUARED 0.152, read-out: LUCIFERASE INFECTION ASSAY - IC50”, the IC50 amounted to 6.59 µM.
In the case of `COC(=O)c1cc(OC)c(OC)cc1NC(=O)c1ccccc1Br`, the IC90 was greater than 8.37 µM. Moreover, the IC50 under setting [1] was greater than 8.37 µM.
As to `Cc1cc(C(=O)OCC(=O)NC(C)c2ccccc2)c(C)n1-c1ccccc1` (stereo not drawn), the IC90 was greater than 10 µM. Moreover, under “HEPG2TOX_HILL_SLOPE 1.33, HEPG2TOX_R_SQUARED 0.976, PBLUC_HILL_SLOPE 3.52, PBLUC_R_SQUARED 0.43, read-out: LUCIFERASE INFECTION ASSAY - IC50”, the concentration for half-maximal inhibition (IC50) came out at 7.39 µM.
As to `COc1ccc(N2CCN(c3nccnc3-c3ccccc3)CC2)cc1OC`, the 90% effect concentration (IC90) came to 0.978 µM. Besides, the 50% inhibitory concentration (IC50) under setting [1] stood at 0.382 µM.
Regarding `Oc1ccc(/C=N/n2c(-c3ccco3)cs/c2=N\c2ccc(F)cc2F)c(O)c1`, the IC90 was greater than 10 µM. The concentration for half-maximal inhibition (IC50) (PBLUC_HILL_SLOPE 8.45, PBLUC_R_SQUARED 0.234, read-out: LUCIFERASE INFECTION ASSAY - IC50) is 8.99 µM.
As to `CN(C)S(=O)(=O)c1cccc(COC(=O)C2(c3ccc(F)cc3)CCCC2)c1`, the IC90 was greater than 10 µM. Also, the 50% inhibitory concentration (IC50) (PBLUC_HILL_SLOPE 13, PBLUC_R_SQUARED 0.517, read-out: LUCIFERASE INFECTION ASSAY - IC50) is 8.83 µM.
Turning to `CC(=O)c1c(C)[nH]c(C(=O)OCC(=O)Nc2c(C)nn(-c3ccccc3)c2C)c1C`, the 90% effect concentration (IC90) was greater than 10 µM. Besides, the IC50 (PBLUC_HILL_SLOPE 2.08, PBLUC_R_SQUARED 0.0451, read-out: LUCIFERASE INFECTION ASSAY - IC50) was greater than 10 µM.
For the compound `CC12CCC(C(=O)N3CCN(c4cccc(Cl)c4)CC3)(OC1=O)C2(C)C` (stereo not drawn), the IC90 was greater than 8.76 µM. Further, where the note is “PBLUC_HILL_SLOPE 1.72, PBLUC_R_SQUARED 0.0862, read-out: LUCIFERASE INFECTION ASSAY - IC50”, the IC50 was greater than 8.76 µM.
Turning to `CC(C)(C)c1ccc(NC(=O)NCCSCc2ccco2)cc1`, the 90% effect concentration (IC90) was greater than 9.93 µM. The IC50 under setting [1] was greater than 9.93 µM.
Consider `O=C(Nc1nc2ccc(OC(F)(F)F)cc2s1)c1cnccn1`, for which the IC90 turned out to be 3.41 µM. For the same compound, the concentration for half-maximal inhibition (IC50) (FFLUC_HILL_SLOPE 1.04, FFLUC_R_SQUARED 0.266, PBLUC_HILL_SLOPE 101, PBLUC_R_SQUARED 0.2, read-out: LUCIFERASE INFECTION ASSAY - IC50) was found to be 3.33 µM.
`O=C1C(=O)N(CCc2ccccc2)c2c1cccc2C(F)(F)F`: the concentration for an effect of 90% (IC90) was found to be 5.96 µM. Moreover, under “FFLUC_HILL_SLOPE 10.6, FFLUC_R_SQUARED 0.162, HEPG2TOX_HILL_SLOPE 9.24, HEPG2TOX_R_SQUARED 0.771, PBLUC_HILL_SLOPE 5.11, PBLUC_R_SQUARED 0.647, read-out: LUCIFERASE INFECTION ASSAY - IC50”, the IC50 came out at 3.88 µM.
As to `CC(C)(C)NC(=O)NC(=O)COC(=O)CNS(=O)(=O)c1ccc(Br)cc1Cl`, the IC90 was greater than 10 µM. Also, the IC50 under setting [1] was greater than 10 µM.
For `CS(=O)(=O)Nc1cccc(CNC(=O)c2cccc3c4c([nH]c23)CCCC4)c1`, the IC90 is greater than 10 µM. For the same compound, the half-inhibitory concentration (IC50) (HEPG2TOX_HILL_SLOPE 8.62, HEPG2TOX_R_SQUARED 0.723, PBLUC_HILL_SLOPE 1.82, PBLUC_R_SQUARED 0.711, read-out: LUCIFERASE INFECTION ASSAY - IC50) was found to be 5.31 µM.
Take `O=[N+]([O-])c1ccc(/C=[N+](\[O-])c2ccccc2)s1`: the IC90 was greater than 13.3 µM. Moreover, the IC50 under setting [1] was greater than 13.3 µM.
With `COc1ccc(-c2cc(-c3cccc(NS(C)(=O)=O)c3)cnc2N)c(OC)c1`, the IC90 turned out to be 4.29 µM. The half-inhibitory concentration (IC50) (HEPG2TOX_HILL_SLOPE 1.15, HEPG2TOX_R_SQUARED 0.874, PBLUC_HILL_SLOPE 1.81, PBLUC_R_SQUARED 0.713, read-out: LUCIFERASE INFECTION ASSAY - IC50) stood at 1.27 µM.
Turning to `CCOC(=O)C1=C(C)NC(C)=C(C(=O)OCC)C1c1ccc(-c2cc(C(F)(F)F)cc(C(F)(F)F)c2)o1`, the concentration for an effect of 90% (IC90) was greater than 6.21 µM. The IC50 (FFLUC_HILL_SLOPE 13.3, FFLUC_R_SQUARED 0.16, read-out: LUCIFERASE INFECTION ASSAY - IC50) was greater than 6.21 µM.
`CC(=O)Nc1ccc2c(Cn3ncc(Cl)c(Cl)c3=O)cc(=O)oc2c1`: the IC90 stood at 9.76 µM. Also, the IC50 (HEPG2TOX_HILL_SLOPE 3.1, HEPG2TOX_R_SQUARED 0.966, PBLUC_HILL_SLOPE 14.3, 0.748, PBLUC_R_SQUARED 0.481, 0.667, read-out: LUCIFERASE INFECTION ASSAY - IC50) stood at 5.45 µM.
With `Cc1nn(C(=O)Nc2cccc(C(F)(F)F)c2)c(C)c1Sc1ccc(C(F)(F)F)cn1`, the IC90 is greater than 7.17 µM. Besides, for the setting “HEPG2TOX_HILL_SLOPE 21.1, HEPG2TOX_R_SQUARED 0.715, PBLUC_HILL_SLOPE 11, PBLUC_R_SQUARED 0.14, read-out: LUCIFERASE INFECTION ASSAY - IC50”, the IC50 came to 6.09 µM.
Consider `O=[N+]([O-])c1ccc(O)c(CNc2ncnc3sc4c(c23)CCCC4)c1`, for which the IC90 was determined as 8.25 µM. Besides, the IC50 (HEPG2TOX_HILL_SLOPE 12, HEPG2TOX_R_SQUARED 0.784, PBLUC_HILL_SLOPE 5.09, 13.1, PBLUC_R_SQUARED 0.860, 0.272, read-out: LUCIFERASE INFECTION ASSAY - IC50) turned out to be 7.21 µM.
Consider `O=C1C=C(NCCSCc2ccccc2Cl)CC(c2ccc3c(c2)OCO3)C1` (stereo not drawn), for which the concentration for an effect of 90% (IC90) was greater than 7.93 µM. Under “HEPG2TOX_HILL_SLOPE 7.83, HEPG2TOX_R_SQUARED 0.476, PBLUC_HILL_SLOPE 2.36, PBLUC_R_SQUARED 0.149, read-out: LUCIFERASE INFECTION ASSAY - IC50”, the IC50 was 6.56 µM.
On to `CN(C)CCCNC(=O)c1ccc(-c2cn3c(-c4ccc(Cl)cc4)cnc3cn2)cc1`, for which the IC90 stood at 3.76 µM. Further, the IC50 (HEPG2TOX_HILL_SLOPE 3.47, HEPG2TOX_R_SQUARED 0.818, PBLUC_HILL_SLOPE 9.43, PBLUC_R_SQUARED 0.518, read-out: LUCIFERASE INFECTION ASSAY - IC50) was 2.98 µM.
As for `O=C(NCCSCc1csc2ccc(Cl)cc12)Nc1ccc(Cl)cc1`, the IC90 was greater than 8.02 µM. For the same compound, the IC50 under setting [1] was greater than 8.02 µM.
Consider `Cc1noc(C)c1COc1ccc(C(=O)NNc2c(Cl)cc(Cl)cc2Cl)cc1`, for which the IC90 is greater than 10 µM. Under setting [1], the half-inhibitory concentration (IC50) was greater than 10 µM.
